The values that follow come from US20050124589A1, “New use, pharmaceutical preparations as well as a process for their production” (priority 2003, published 2005).

For series [1] the following is noted: cited from earlier work.
A short description of series [2]: Physical storage stability of aqueous Ifosfamide concentrates with Mesna as solubility-enhancing agent. The series is classed as physicochemical. The conditions noted are these: Mesna as solubility-enhancing agent in Ifosfamide concentrates. Here is the method:
The ratios refer to the proportions by weight of the substances in the solution. The solutions are homogenized, sterilized by filtration and filled under aseptic conditions. Production is carried out under nitrogen. These solutions can also be lyophilized in order to obtain a longer storage life of the pharmaceutical preparation. In addition to the auxiliary agents that are set forth in the examples, the solution can contain also further substances, e.g. sodium chloride, Mannitol, lactose, polyethylenglycol, ethanol, glucose, disaccharide, cyclodextrine.
In the manufacture, 90% of the Water for Injection is cooled to about 5° C. to 10° C., to which is dissolved the phosphate buffer; the Mesna is subsequently added and is homogeneously dissolved. […] The solution so obtained is brought to the specified weight with the cooled Water for Injection, sterile-filtered and filled in injection vials under aseptic conditions. Sterilization and filling are not carried out under cooling.
The making of Examples 4, 5 and 6 is carried out analogously to the description of Example 1.

As to `O=P1(NCCCl)OCCCN1CCCl` (stereo not drawn) [Ifosfamide, 2-(chlorethylamino)-3-(2-chlorethyl)-tetrahydro-2H-1,3,2-oxazaphosphorin-2-oxide], the “solubility in water (saturation concentration)” value in series [1] (water, room temperature) was “about 140 mg/mL”. Besides, the “solubility of Ifosfamide lowered by addition of auxiliary agents” value in series [1] (with auxiliary agents added) is on record as “under 10 % (wt/vol)”.

For `O=S(=O)(O)CCS` [Mesna, mercaptoethane sulfonate-sodium], the “physical stabilization of Ifosfamide solution” value in series [2] is “prevents crystallization”.
